Measurements from patent US6870056B1, “Substitituted polycyclic aryl and heteroaryl pyridones useful for selective inhibition of the coagulation cascade” (Pharmacia Corporation, priority 1999, dated 2005).

Tests used:
Assay type in all cases: biochemical
[1] = molecular target: T1, trypsin, type IX from porcine pancreas (Sus scrofa, UniProt P00761); assay: Trypsin Assay; conditions: L-BAPNA substrate, 60 min, room temperature, pH 8.0; read-out: Trpysin II ICSO
T1 construct: purchased Sigma, St Louis Mo. type IX; host or cells: porcine pancreas
T1 sequence (P00761 9-231): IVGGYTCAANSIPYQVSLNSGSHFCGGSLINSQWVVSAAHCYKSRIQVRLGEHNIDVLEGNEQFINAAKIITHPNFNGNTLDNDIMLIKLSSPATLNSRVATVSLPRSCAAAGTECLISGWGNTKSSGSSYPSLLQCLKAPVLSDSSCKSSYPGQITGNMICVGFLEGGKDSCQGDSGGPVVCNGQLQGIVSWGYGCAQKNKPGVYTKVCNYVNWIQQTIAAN
Procedure: 5 ug/ml trypsin, type IX from porcine pancreas and 0.375 mM N-α-Benzoyl-L-arginine-p-nitroanilide (L-BAPNA) are added to a 96-well assay plate containing either inhibitor or buffer (50 mM Tris-HCl, pH 8.0, 100 mM NaCl, 0.1% BSA). The reactions, in a final volume of 100 ul are measured immediately at 405 nm to determine background absorbance. The plate is incubated at room temperature for 60 min, at which time the rate of hydrolysis of the substrate is measured by monitoring the reaction at 405 nm for the release of p-nitroaniline. Percent inhibition of trypsin activity is calculated from OD405 nm value from the experimental and control sample.
(§1) Recombinant soluble TF, consisting of amino acids 1-219 of the mature protein sequence was expressed in E. coli and purified using a Mono Q Sepharose FPLC. Recombinant human VIIa was purchased from American Diagnostica, Greenwich Conn. and chromogenic substrate N-Methylsulfonyl-D-phe-gly-arg-p-nitroaniline was prepared by American Peptide Company, Inc., Sunnyvale, Calif. Factor Xa was obtained from Enzyme Research Laboratories, South Bend Ind., thrombin from Calbiochem, La Jolla, Calif., and trypsin and L-BAPNA from Sigma, St Louis Mo. The chromogenic substrates S-2765 and S-2238 were purchased from Chromogenix, Sweden.

[2] = molecular target: T2, recombinant soluble tissue factor and recombinant human factor VIIa (TF-VIIa) (Homo sapiens, UniProt P08709); assay: TF-VIIa Assay; conditions: chromogenic substrate, 60 min, room temperature, pH 8.0
T2 construct: purchased American Diagnostica, Greenwich Conn; host or cells: soluble TF made in house in E. coli
T2 sequence (P08709 213-466 limits assumed): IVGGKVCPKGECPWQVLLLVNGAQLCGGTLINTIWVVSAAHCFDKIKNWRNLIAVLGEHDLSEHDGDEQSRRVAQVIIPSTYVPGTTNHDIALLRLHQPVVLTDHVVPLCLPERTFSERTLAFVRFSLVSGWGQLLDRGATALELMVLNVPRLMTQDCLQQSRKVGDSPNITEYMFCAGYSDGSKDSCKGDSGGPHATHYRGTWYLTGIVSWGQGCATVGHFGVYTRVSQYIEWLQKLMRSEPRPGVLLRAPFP
T2 sequence (P08709 61-212 partner limits assumed): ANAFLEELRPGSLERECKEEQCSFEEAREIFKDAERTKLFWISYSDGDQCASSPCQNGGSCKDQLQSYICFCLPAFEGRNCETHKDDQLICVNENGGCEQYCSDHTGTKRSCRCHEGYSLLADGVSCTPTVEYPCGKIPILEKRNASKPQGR
T2 sequence (P13726 33-251 partner limits assumed): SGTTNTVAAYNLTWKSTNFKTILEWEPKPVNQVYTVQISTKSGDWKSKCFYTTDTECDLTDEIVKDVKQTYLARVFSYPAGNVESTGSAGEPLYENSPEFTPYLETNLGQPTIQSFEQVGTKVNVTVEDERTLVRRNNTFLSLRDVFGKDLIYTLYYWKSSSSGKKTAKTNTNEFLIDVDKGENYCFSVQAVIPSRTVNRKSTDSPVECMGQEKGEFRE
Procedure: (§2) In this assay 100 nM recombinant soluble tissue factor and 2 nM recombinant human factor VIIa are added to a 96-well assay plate containing 0.4 mM of the substrate, N-Methylsulfonyl-D-phe-gly-arg-p-nitroaniline and either inhibitor or buffer (5 mM CaCl2,50 mM Tris-HCl, pH 8.0, 100 mM NaCl, 0.1% BSA). The reaction, in a final volume of 100 ul is measured immediately at 405 nm to determine background absorbance. The plate is incubated at room temperature for 60 min, at which time the rate of hydrolysis of the substrate is measured by monitoring the reaction at 405 nm for the release of p-nitroaniline. Percent inhibition of TF-VIIa activity is calculated from OD405 nm value from the experimental and control sample.
as §1

[3] = molecular target: T3, human factor Xa (Homo sapiens, UniProt P00742); assay: Xa Assay; conditions: S-2765 substrate, 60 min, room temperature, pH 8.0
T3 construct: leads from XII to XIIa to XIa to IXa and to the conversion of X to Xa; purchased Enzyme Research Laboratories, South Bend Ind
T3 sequence (P00742 235-488 limits assumed): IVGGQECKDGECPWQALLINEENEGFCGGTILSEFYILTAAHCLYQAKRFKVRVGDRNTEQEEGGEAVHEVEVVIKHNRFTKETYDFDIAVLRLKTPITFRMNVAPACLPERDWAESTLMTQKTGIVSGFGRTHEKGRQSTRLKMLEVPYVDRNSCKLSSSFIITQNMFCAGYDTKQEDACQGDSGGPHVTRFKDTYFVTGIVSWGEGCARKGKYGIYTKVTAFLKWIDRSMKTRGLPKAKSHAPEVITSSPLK
T3 sequence (P00742 41-179 partner limits assumed): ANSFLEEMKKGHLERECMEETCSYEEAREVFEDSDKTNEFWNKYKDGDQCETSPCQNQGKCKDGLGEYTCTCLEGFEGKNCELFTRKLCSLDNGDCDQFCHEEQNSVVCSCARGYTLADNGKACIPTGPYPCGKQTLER
Procedure: as §2, with “0.3” for “In this assay 100”, “nM” for “nM recombinant soluble tissue factor and 2 nM recombinant”, “Xa and 0.15 mM N-α-Benzyloxycarbonyl-D-arginyl-L-glycyl-L-arginine-p-nitroaniline-dihydrochloride (S-2765)” for “VIIa”, “containing” for “containing 0.4 mM of the substrate, N-Methylsulfonyl-D-phe-gly-arg-p-nitroaniline and”, “(50” for “(5 mM CaCl2,50”, “Xa” for “TF-VIIa”
as §1

[4] = molecular target: human thrombin (Homo sapiens, UniProt P00734); assay: Thrombin Assay; conditions: chromogenic substrate, 60 min, room temperature, pH 8.0; read-out: Thrombin II IC50
Procedure: Percent inhibition of thrombin activity is calculated from OD405 nm value from the experimental and control sample.
Recombinant human VIIa was purchased from American Diagnostica, Greenwich Conn. and chromogenic substrate N-Methylsulfonyl-D-phe-gly-arg-p-nitroaniline was prepared by American Peptide Company, Inc., Sunnyvale, Calif. Factor Xa was obtained from Enzyme Research Laboratories, South Bend Ind., thrombin from Calbiochem, La Jolla, Calif., and trypsin and L-BAPNA from Sigma, St Louis Mo.

SMILES	IC50 [1]	IC50 [2]	IC50 [3]	IC50 [4]
N=C(N)NCCC[C@H](NC(=O)Cn1c(=O)c(NS(=O)(=O)Cc2ccccc2)cc2ccccc21)C(=O)c1nccs1 [Example 1]	0.21 µM	4.6 µM	0.07 µM	0.7 µM
N=C(N)c1ccc(CNC(=O)Cn2c(=O)c(NS(=O)(=O)Cc3ccccc3)cc3ccccc32)cc1 [Example 2, N-[[4-[(amino)iminomethyl]phenyl]methyll]-2-[3-benzylsulfonyl-amino-2-oxo-2H-quinolin-1-yl]acetamide]	0.5 µM	46 µM	7.7 µM	5.5 µM
N=C(N)c1ccc(CNC(=O)Cn2c(=O)c(NCCc3ccccc3)cc3ccccc32)cc1 [Example 3]	0.86 µM	26.1 µM	> 30 µM	11 µM
N=C(N)c1ccc(CNC(=O)Cn2c(=O)c(NS(=O)(=O)c3ccccc3)cc3ccccc32)cc1 [Example 4]	0.48 µM	> 30 µM	23.1 µM	22.7 µM
Nc1ccc(CCNC(=O)Cn2c(=O)c(NS(=O)(=O)Cc3ccccc3)cc3ccccc32)cc1 [Example 6]	> 30 µM	> 30 µM	> 30 µM	> 30 µM
NCCCCNC(=O)Cn1c(=O)c(NS(=O)(=O)Cc2ccccc2)cc2ccccc21 [Example 7]	> 30 µM	> 30 µM	> 30 µM	> 30 µM
NCCCCCNC(=O)Cn1c(=O)c(NS(=O)(=O)Cc2ccccc2)cc2ccccc21 [Example 8]	> 30 µM	> 30 µM	> 30 µM	> 30 µM
CN(C)CCCCCCNC(=O)Cn1c(=O)c(NS(=O)(=O)Cc2ccccc2)cc2ccccc21 [Example 9]	> 30 µM	> 30 µM	> 30 µM	> 30 µM
NCc1ccc(CNC(=O)Cn2c(=O)c(NS(=O)(=O)Cc3ccccc3)cc3ccccc32)cc1 [Example 10]	> 30 µM	> 30 µM	> 30 µM	> 30 µM
NCc1cccc(CNC(=O)Cn2c(=O)c(NS(=O)(=O)Cc3ccccc3)cc3ccccc32)c1 [Example 11]	> 30 µM	> 30 µM	> 30 µM	> 30 µM
O=C(Cn1c(=O)c(NS(=O)(=O)Cc2ccccc2)cc2ccccc21)NCCCn1ccnc1 [Example 12]	> 30 µM	> 30 µM	> 30 µM	> 30 µM
O=C(Cn1c(=O)c(NS(=O)(=O)Cc2ccccc2)cc2ccccc21)NCCc1cnc[nH]1 [Example 13]	> 30 µM	> 30 µM	> 30 µM	> 30 µM
O=C(Cn1c(=O)c(NS(=O)(=O)Cc2ccccc2)cc2ccccc21)NCCc1cccnc1 [Example 14]	> 30 µM	> 30 µM	> 30 µM	> 30 µM
CN1CCC(CCCNC(=O)Cn2c(=O)c(NS(=O)(=O)Cc3ccccc3)cc3ccccc32)CC1 [Example 15]	> 30 µM	> 30 µM	> 30 µM	> 30 µM
Nc1ccc(CNC(=O)Cn2c(=O)c(NS(=O)(=O)Cc3ccccc3)cc3ccccc32)cc1 [Example 16]	> 30 µM	> 30 µM	> 30 µM	> 30 µM
N=C(N)NCCC[C@H](NC(=O)Cn1c(CCc2ccccc2)ccc(NS(=O)(=O)Cc2ccccc2)c1=O)C(=O)c1nccs1 [Example 17, N-[2(S)-2-[1-Oxo-1-(2-thiazolyl)]-5-[[(amino)iminomethyl]amino]pentyl]-2-[6-(2-phenylethyl)-2-oxo-3-[[(phenylmethyl)sulfonyl]amino]-1(2H)-pyrid-1-yl]acetamide]	0.3 µM	1.1 µM	0.1 µM	0.2 µM
Cc1ccc(NS(=O)(=O)Cc2ccccc2)c(=O)n1CC(=O)N[C@@H](CCCNC(=N)N)C(=O)c1nccs1 [Example 18, N-[2(S)-2-[1-Oxo-1-(2-thiazolyl)]-5-[[(amino)iminomethyl]amino]pentyl]-2-[6-methyl-2-oxo-3-[[(phenylmethyl)sulfonyl]amino]-1(2H)-pyrid-1-yl]acetamide]	0.2 µM	0.8 µM	< 4 µM	< 0.04 µM
N=C(N)c1ccc(CNC(=O)Cn2c(CCc3ccccc3)ccc(NS(=O)(=O)Cc3ccccc3)c2=O)cc1 [Example 19, N-[[4-[(amino)iminomethyl]phenyl]methyl)-2-[6-(2-phenylethyl)-2-oxo-3-[[(phenylmethyl)sulfonyl]amino]-1(2H)-pyrid-1-yl]acetamide]	< 0.1 µM	18 µM	4.1 µM	0.4 µM
Cc1ccc(NS(=O)(=O)Cc2ccccc2)c(=O)n1CC(=O)NCc1ccc(C(=N)N)cc1 [Example 20, N-[(4-[[amino)iminomethyl]phenyl]methyl]-2-[6-methyl-2-oxo-3-[[(phenylmethyl)sulfonyl]amino]-1(2H)-pyrid-1-yl]acetamide]	0.5 µM	23 µM	5.7 µM	0.3 µM
N=C(N)N1CCC(CNC(=O)Cn2c(CCc3ccccc3)ccc(NS(=O)(=O)Cc3ccccc3)c2=O)CC1 [Example 21]	0.6 µM	> 30 µM	17 µM	0.5 µM
Cc1ccc(NS(=O)(=O)Cc2ccccc2)c(=O)n1CC(=O)NCC1CCN(C(=N)N)CC1 [Example 22]	11.1 µM	> 30 µM		
